Assay results: patent publication US8822705B2, “Pharmaceutical composition for preventing and/or treating bone disease, functional food or health food and pharmaceutical preparation comprising thereof as active ingredient” (priority 2006, dated 2014)
Entries after “also recorded” stand apart in the source; their conditions may differ.

Experiments:
[1] = tested on: MC3T3-E1 cells; experiment: Calcification of calcium by osteoblast, Alizarin red S staining; type: cell-based, mouse
Description: (§1) MC3T3-E1 cells, pre-osteoblast cells, were suspended in α-MEM and plated in each well of the 96 well-microplate with 4×10^3 cells/well. Then, they were pre-incubated for 2 days at 37° C., 5% CO2 incubator. On day 3 from the beginning of the pre-incubation, culture medium in the wells were changed to α-MEM containing each concentration of test sample, 50 μg/mL of ascorbic acid and 10 mM β-glycerophosphoric acid, and then incubated for 7 to 21 days. In the incubation, the culture medium in the wells was exchanged in every 3 or 4 days.
Calcification of osteoblast cells were confirmed by Alizarin red S staining.
Effects of the above-mentioned four compounds and glycosides to the calcification of calcium by osteoblast were shown in FIG. 5.

[2] = tested on: MC3T3-E1 cells; experiment: Cytotoxicity by Cell Counting kit-8 or MTT (total cell numbers); type: cell-based, mouse; conditions: for cell number decreasing (cytotoxicity): by 30 μM
Description: After incubation of the same condition as described above, cytotoxicity was measured by using the Cell counting kit-8 or MTT according to the conventional method.
Cytotoxicity was measured by using Cell Counting kit-8 or MTT according to conventional method, after MC3T3-E1 was incubated in the same conditions as (2) described above.

[3] = tested on: MC3T3-E1 cells; experiment: Osteoblast differentiation, ALP activity in MC3T3-E1 cells; type: cell-based, mouse; conditions: incubated 7 to 21 days with test sample, absorbance at 405 nm, FIGS. 1A to 1D
Description: as §1
After the incubation period, the cells were fixed by using methanol. After drying the dish, activity of alkaline phosphatase (ALP), a marker enzyme of early stage osteoblast differentiation, was measured, and subjected to ALP staining.
In the measurement of ALP activity, a buffer containing 6.7 mM p-nitrophenylphosphate as a substrate, supplemented 2 mM magnesium chloride and 100 mM tris-HCl, pH 8.5. 100 μL of the buffer was plated in each well, incubated in 30 minutes at 37° C. Then, 100 μl of 0.1 N sodium hydroxide was added to the wells to terminate the reaction. After that, the absorbance at 405 nm was measured by using the plate reader and the absorbance value was used as ALP activity.
In ALP staining, the buffer containing 0.1 mg/ml naphtol AS-MX phosphate, 0.6 mg/ml fast blue BB salt, supplemented 2 mM magnesium chloride and 10 mM tris-HCl pH 8.5 was used. 50 μL of the buffer was added to each well of the 96 well-microplate and incubated for 30 minutes to 1 hour to stain.

[4] = tested on: excised first molar of C57BL/6 mice grafted under capsule of kidney; experiment: Graft culture of excised tooth with impregnated agarose beads under kidney capsule, alveolar bone formation; type: in vivo, mouse; conditions: three agarose beads impregnated in 100 μM acerogenin A embedded into dental pulp, 3 weeks graft culture, compared to D-PBS bead negative control; FIG. 4B
Description: Agarose beads impregnated in acerogenin A (hereinbelow, it is referred to as “acerogenin A-impregnated beads”) were prepared as follows. acerogenin A was diluted to 100 μM (at final concentration) by using D-PBS. Affi-Gel agarose beads were washed by using PBS. Washed agarose beads were placed in the 1.5 mL Eppendorf tube with flat bottom and 100 μL of the acerogenin A solution was added into it. Then, the tube was incubated at room temperature for 45 minutes to impregnated acerogenin A into the agarose beads. Acerogenin-impregnated agarose beads obtained were used for embedding under dental pulp in below.
Alternatively, as negative control, agarose beads similarly to prepare the acerogenin A-impregnated beads but impregnated in D-PBS without acerogenin A (hereinbelow, it is referred to as “D-PBS-impregnated beads”) were used.
Five days age of […] mice, where their dental roots-periodontal tissue was just before formed, were anesthetized and sacrificed by decapitation. After excised lower jaw of them, the first molars in the lower jaw were excised with dental follicles. For the test group, three acerogenin A-impregnated agarose beads were embedded into the dental pulp of the excised teeth, the first molar in the lower jaw. […]

SMILES	calcification activity level of calcium, rank order [1]	cell number decreasing (cytotoxicity) ([2]; FIGS. 2B and D)	cell numbers (cytotoxicity) ([2]; by 100 μM, FIGS. 2B and D)	ALP activity (early stage osteoblast differentiation) [3]	cell numbers (cytotoxicity) ([2]; FIGS. 2A and C)	cell numbers (cytotoxicity) at high concentration ([2]; FIGS. 2A and C)	alveolar bone formation of grafted tooth [4]
Oc1ccc2cc1Oc1ccc(cc1)CCCC[C@@H](O)CC2 [(R)-acerogenin B, 2-Oxatricyclo[13.2.2.13,7]eicosa-3,5,7(20),15,17,18-hexaene-4,10-diol, (10R)-(9CI)]	(R)-acerogenin B>aceroside I≅acerogenin A>aceroside B1	not observed	not affected	enhanced ALP activity	–	–	–
Oc1ccc2cc1Oc1ccc(cc1)CC[C@H](O)CCCC2 [acerogenin A, 2-Oxatricyclo[13.2.2.13,7]eicosa-3,5,7 (20),15,17,18-hexaene-4,12-diol, (12R)-(9CI)]	(R)-acerogenin B>aceroside I≅acerogenin A>aceroside B1	–	–	enhanced ALP activity	not affected	slightly decreased	prominent extension of alveolar bone formation
OC[C@H]1O[C@@H](Oc2ccc3cc2Oc2ccc(cc2)CCCC[C@@H](O)CC3)[C@H](O)[C@@H](O)[C@@H]1O [aceroside B1, α-D-Glucopyranoside,(10R)-10-hydroxy-2-oxatricyclo[13.2.2.13,7]eicosa-3,5,7(20),15,17,18-hexaen-4-yl (9CI)]	(R)-acerogenin B>aceroside I≅acerogenin A>aceroside B1	not observed	not affected	enhanced ALP activity	–	–	–
OC[C@H]1O[C@H](Oc2ccc3cc2Oc2ccc(cc2)CC[C@@H](O)CCCC3)[C@H](O)[C@@H](O)[C@@H]1O [aceroside I, α-D-Glucopyranoside, (12S)-12-hydroxy-2-oxatricyclo[13.2.2.13,7]eicosa-3,5,7(20),15,17,18-hexaen-4-yl (9CI)]	(R)-acerogenin B>aceroside I≅acerogenin A>aceroside B1	–	–	enhanced ALP activity; also recorded: dose-dependently enhanced	not affected	slightly decreased	–
